# Results published in patent US20050233377A1, “Drug screening method for the treatment of brain damage” (priority 2004, published 2005).
# Legend:
# [1] = type: physicochemical
# Excerpt: Both compounds were therefore dissolved in DMSO for the NMR titration experiments.
# PDZ2 of PSD-95 = target: T1, PDZ2 of PSD-95 (Rattus norvegicus, UniProt P31016); test: NMR chemical shift perturbation assay (1H-15N HSQC) of binding to 15N-labeled PDZ2; conditions: for structural perturbation of PDZ2 (chemical shift of amide groups of Ser 173 and Ala 231 normalized to maximal shift with crude extract = 100%): 10-fold excess of compound relative to PDZ2
# T1 construct: His tag (N); made in house; host or cells: Escherichia coli BL21 (DE3), pET14b
# T1 sequence (P31016 156-249): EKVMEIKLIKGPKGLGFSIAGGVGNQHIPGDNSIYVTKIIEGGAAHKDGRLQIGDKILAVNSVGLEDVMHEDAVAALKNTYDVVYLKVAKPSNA
# Description: In this specific non-limiting example, the PDZ-domain of recombinant PSD-95 was uniformly labeled with ^15N using the recombinant protein production method described. The ^15N-labeled PSD-95 was expressed in and purified from E. coli bacterial cells. The NMR spectra was acquired at 30° C. on Varian Inova 500 or 750 spectrometers each equipped with a 5 mm z-shielded gradient triple resonance probes. Lyophilized ^15N-labeled PDZ2 protein dissolved in 100 mM potassium phosphate buffer at pH 6.0, with a pure recombinant protein concentration of ˜0.1-0.2 mM (typically 0.5 ml in 100 mM phosphate buffer) for spectral analysis.
# Since the identity of every resonances of the ^1H-^15N HSQC spectrum of PSD-95 PDZ domains is known, and the three dimensional structures of the PSD-95 PDZ domains could be elucidated, the quantitative values of compound-induced chemical shift changes for each amino acid residues of PSD-95 PDZ2 were computed using the equation: Δppm=[(ΔδHN)^2+(ΔδN·αN)^2]^1/2
# The scaling factor αN used to normalize ^1H and ^15N chemical shifts was 0.17. ΔδHN corresponded to the change of the ^15N-bonded hydrogen chemical shift of a specific resonance, while ΔδN corresponded to the change of the ^15N chemical shift of that resonance.
# In this method, the PDZ domain of PSD-95 is expressed recombinantly as described in Example 1 and uniformly labeled with ^15N using a recombinant protein production method. […]
# Using preparation techniques mentioned above, a ^1H,^15N HSQC spectrum was recorded for each mixture of bound PDZ2 protein, and compared with the ^1H,^15N HSQC spectrum of free PSD-95 PDZ2 (˜0.1 mM in the same buffer). […]
# The observation of chemical shift changes (with respect to the free PDZ2) as a result of mixing the protein with the herbal mixtures or pure compounds was scored as positive binding of compound(s) to PDS-95 PDZ2. […]
# The binding affinity of the compounds to PDZ2 of PSD-95 was quantified by normalizing the chemical shift of the amide groups of Ser 173 and Ala 231 in relation to the maximal shift of these groups upon incubation with the crude extract (100%). […]
SMILES,solubility in H2O [1],structural perturbation of PDZ2 (chemical shift of amide groups of Ser 173 and Ala 231 normalized to maximal shift with crude extract = 100%) (PDZ2 of PSD-95),"chemical shift changes of PSD-95 PDZ2 HSQC spectrum relative to free PDZ2 (scored as positive binding) (PDZ2 of PSD-95; 15N-labeled PDZ2 0.1-0.2 mM, 100 mM phosphate buffer pH 6.0)"
O=C(O)[C@H]1O[C@@H](Oc2cc3oc(-c4ccccc4)cc(=O)c3c(O)c2O)[C@H](O)[C@@H](O)[C@@H]1O [baicalin],very poor solubility,around 60%,significant chemical shift changes
O=C(O)[C@H]1O[C@@H](Oc2cc(O)c3c(=O)cc(-c4ccccc4)oc3c2O)[C@H](O)[C@@H](O)[C@@H]1O [norwogonoside],–,around 60%,–
COc1c(O[C@@H]2O[C@H](C(=O)O)[C@@H](O)[C@H](O)[C@H]2O)cc(O)c2c(=O)cc(-c3ccccc3)oc12 [wogonoside],very poor solubility,–,–
